Assay results: patent US20220306653A1, “MACROCYCLIC INHIBITORS OF MCL-1” (Janssen Pharmaceutica NV, priority 2019, published 2022)
Several values for one entry are separate records, joined by “and”; a condition that tells them apart may be missing. Equal entries are not always repeated. Where two headings read alike, the source gives them in different places.

How the values were obtained:
MOLP8 cells = test: MOLP8 CellEvent Caspase-3/7 Green apoptosis activation assay (IncuCyte live-cell kinetic readout); type: cell-based; settings: each independent run listed
Procedure: MCL-1 is a regulator of apoptosis and is highly over-expressed in tumor cells that escape cell death. The assay evaluates the cellular potency of small-molecule compounds targeting regulators of the apoptosis pathway, primarily MCL-1, Bfl-1, Bcl-2, and other proteins of the Bcl-2 family. Protein-protein inhibitors disrupting the interaction of anti-apoptotic regulators with BH3-domain proteins initiate apoptosis.
Activation of the apoptotic pathway was measured using the CellEvent™ Caspase-3/7 Green ReadyProbes™ Reagent (Thermo Fisher C10423, C10723). This assay produces a green fluorescent stain in cells that enter the apoptosis pathway. CellEvent® Caspase-3/7 Green reagent is a four amino acid peptide (DEVD) conjugated to a nucleic acid-binding dye that is non-fluorescent when not bound to DNA. The CellEvent® Caspase-3/7 Green reagent is intrinsically non-fluorescent, as the DEVD peptide inhibits binding of the dye to DNA. Upon activation of caspase-3/7 in apoptotic cells, the DEVD peptide is cleaved and the free dye can bind DNA, generating a bright green fluorescence. The activation of Caspase-3 and Caspase-7 is downstream of inhibition of MCL-1 or other apoptosis inhibiting proteins in cell lines that are dependent on them.
The live-cell readout on the IncuCyte permits tracking over time of the Caspase activation. […] The IncuCyte readout also allows one to normalize for cell number, as the suspension cells are hard to distribute evenly.
Signals were measured every 2 h for a duration of 22 h. The ratio of the Caspase mask to the Confluence mask, per image, as raw data, was calculated and the kinetic trace for every well was exported to Genedata Screener for analysis.
In Genedata Screener values for 6 h, 12 h, and 22 h from the kinetic traces were extracted. The values were normalized against negative controls (untreated cells). A standard dose-response analysis was performed on the normalized data.
The following data was reported at each of the following three aforementioned time points: (a) The dose-response curve, (b) The qAC50 and qAC50 Mode, and (c) Max Activity.
Cells were maintained in culture medium containing 10% Heat Inactivated (HI) FBS, 2 mM L-Glutamine and 50 µg/mL Gentamycin phenol red free RPMI-1640. Cells were split at 0.4 million/mL twice a week.
On Day 1, plates containing individual wells with test compounds at 10 mM concentration, 150 nL per well. The final concentrations range from […] compound (and no compound control) and compounds were thawed at room temperature for 1 hour. 25 μl of prewarmed medium was added into each well by multidrop (column 1, 3-22, 24), followed by addition of DMSO control (0.6% DMSO) in column 2. The plate was sealed using Breathe-Easy® sealing membrane and shaken for 30 min at room temperature to dissolve the test compound(s) in medium. The plate was then kept in the incubator for 1 hour at 37° C., 5% CO2.
MOLP8 cells in medium at […] (20000/50 μl final in assay) were prepared with CellEvent™ Caspase-3/7 Green Detection Reagent at 4 μM (2 μM final in assay). Once prepared, the cells were added to the test compound plate in an amount of 20000 and the plate was immediately placed in the IncuCyte and imaging started using following settings: 10× objective, 2 s exposure time in green channel, interval of 2 h, acquisition stopped after 22 h.
For analysis in IncuCyte, a Basic Analysis protocol was defined to calculate the “confluence” and “caspase” areas from the “Phase” and “green” images, respectively, as follows: (a) Confluence: Segmentation Adjustment 1, Hole Fill 0, Adjust Size −2, No filters (b) Caspase: Top-Hat segmentation, Radius 10, Threshold 0.3 GCU, Edge Split On with sensitivity 0, Hole Fill 0, Adjust Size 1, and filter on a minimum Area of 20 μm^2. The analyzer is trained on a sufficient number of positive and negative control wells, as well as compound treated wells, verifying that the “confluence” layer detects both live and dead (condensed) cells. […]

[1] = tested on: Molp8 multiple myeloma cell line; test: Molp8 multiple myeloma cell line survival assay using Annexin V and 7AAD; type: cell-based, human; settings: live cell percent by Annexin V/7AAD flow cytometry, 3 days incubation; each independent run listed individually; read-out: MOLP8 Apoptosis IC50
Text: Molp8 multiple myeloma cell line survival assay using Annexin V and 7AAD.
The Annexin V/7AAD principle is based on the location of phosphatidylserine in the plasma membrane and the integrity of the membrane barrier. During early apoptosis, phosphatidylserine loses its normal distribution patterns in the inner leaflet of the plasma membrane and appears on the exterior of the plasma membrane. Annexin proteins are calcium dependent phospholipid binding proteins and can bind phosphatidylserine on the outer membrane during cell death. The viability dye 7AAD is excluded from entering cells with intact plasma membranes but accumulates in cells that have lost membrane integrity. Annexin Fitc is excited by the 488 nm laser (max excitation: 490 nm, max emission: 525 nm) as is 7AAD (excitation: 488 nm, emission: 650 nm), which allows this assay to be completed on any multicolor flow cytometer.
The assay conditions were optimized using the following 1× reaction buffer: 5 mM HEPES (4-(2-hydroxyethyl)-1-piperazineethanesulfonic acid), 70 mM NaCl, 1.25 mM CaCl2, pH 7.4.
The Molp 8 cells were multiple myeloma, human, in suspension (*cells were counted 2× per week and culture density maintained between 0.5 and 1.5×10^6 cells per ml).
On Day 1, 5×10^4 live cells per well were plated in a 96-well U-bottom plate, with the cells plated in 100 uL RPMI+10% FBS. An 11-point compound dilution plate was prepared in 3-fold steps (Final concentration range 10 μM-0.1 nM) and added at a concentration of 1 μL per well. The plate was then incubated for 3 days at 37° C. and 5% CO2.
On Day 4, the cells were pelleted and the media discarded. The cells were then resuspended in 50 μL AnnexinV-Fitc (1:40 dilution) and 7AAD (1:100 dilution) in Annexin binding buffer, then incubated for 30 min @ room temperature in the dark. 50 μL binding buffer (100 uL total volume) was then added to the cells. There was no wash step required.
Within 2 hours, PeCy5 (7AAD) and Fitc (Annexin) channels were recorded using BD Canto, collecting a minimum per singlet of 10,000 events.
The activity of a test compound was calculated based on the live cell percentage. • LC=Median of the low control values • =Low control: cells without treatment (no greater than 100% live) • HC=Median of the high control values • =High control: cells treated with 10 uM drug (no less than 0% live)
A best-fit curve was fitted by a minimum sum of squares method to the plot of live cell percent vs. compound concentration. From this an IC50 value (inhibitory concentration causing 50% cytotoxicity) was obtained. An estimate of the slope of the plot in terms of the Hill coefficient was also obtained.

[2] = 6 h, read-out: MOLP8 Caspase 3/7 AC50 at 6 h
[3] = 12 h, read-out: MOLP8 Caspase 3/7 AC50 at 12 h
[4] = 22 h, read-out: MOLP8 Caspase 3/7 AC50 at 22 h

Row | SMILES | AC50 (MOLP8 cells; [2]) | AC50 (MOLP8 cells; [3]) | AC50 (MOLP8 cells; [4]) | IC50 [1]
1 | Cc1c(C(=O)O)n2c3ccc(Cl)c(c13)-c1c(nn(C)c1C)CSCc1cc(n(C)n1)CSc1cc(c3ccccc3c1)OCCC2 (single isomer, unassigned) [Compound 1, 1^5-chloro-1^3,2^1,2^5,6^1-tetramethyl-1^1H,2^1H,6^1H-10-oxa-4,8-dithia-1(4,1)-indola-2(4,3),6(3,5)-dipyrazola-9(3,1)-naphthalenacyclotridecaphane-1^2-carboxylic acid] | 178 nM and 129 nM | 141 nM and 182 nM | 145 nM and 170 nM | 54 nM and 106 nM
2 | Cc1c(C(=O)O)n2c3ccc(Cl)c(c13)-c1c(nn(C)c1C)CSCc1cc(n(C)n1)CSc1cc(c3ccccc3c1)OCCC2 (single isomer, unassigned) [Compound 2, 1^5-chloro-1^3,2^1,2^5,6^1-tetramethyl-1′H,2′H,6H-10-oxa-4,8-dithia-1(4,1)-indola-2(4,3),6(3,5)-dipyrazola-9(3,1)-naphthalenacyclotridecaphane-1^2-carboxylic acid] | 4570 nM and 4790 nM | 4470 nM and 4680 nM | 4270 nM and 4470 nM | 1300 nM and 7040 nM
